# Data: US8530680B2, “System and method for controlling growth of microorganisms with brominated furanones” (Syracuse University, priority 2008, dated 2013)
# Entries after “also recorded” stand apart in the source; their conditions may differ.
# Tests used:
# [1] = tested on: Trametes versicolor strain TV7B2-59; assay: Fungal growth on MEA plates with furanone; type: cell-based; parameters: key to growth on plate, TV7B2-59: −: No growth was observed; +: normal growth was seen; conditions: for growth on plate, TV7B2-59: 60 μg/mL, 7 days at 30° C.; for growth inhibition test, inhibitory concentration, TV7B2-59: tested at 1, 5, 30, 60 μg/mL, 7 days
# Experimental: (§1) This Example examines the effect of brominated furanones on the growth of fungi associated with damage to building material. Six fungal strains were the subject of these experiments; Gloeophyllum trabeum (strains GT598 and GT599), Chaetomium globosum (wildtype strain and CG572), and Trametes versicolor (strains TV7B2-59 and TV57MAD277). The species were developed on 2% Malt-Extract Agar (MEA) plates and stored inverted at 4° C. The stocks were refreshed by streaking new plates every two months.
# (§2) The brominated and non-brominated furanones were added to MAE agar plates at different concentrations. The brominated furanones were dissolved in either ethanol (“EtOH”) or methanol (“MeOH”) as stock solutions, as shown in Table 5. The non-brominated furanones were purchased from Sigma (St. Louis, Mo.). The furanone stocks were stored at 4° C.
# (§3) MAE agar plates containing the same amounts of ethanol/methanol were also prepared as negative controls to eliminate any solvent effects. The plates were prepared using either 90 mm or 60 mm petri dishes and were stored inverted at 4° C. until use.
# (§4) Different concentrations of furanones were studied to compare their antifungal activities. The plates were inoculated with the six fungal strains using a platinum loop and were incubated upside down at 30° C. for 7 days to monitor the growth. The initial screening was performed using a single 60 μg/mL furanone concentration.
# [2] = tested on: Chaetomium globosum CG572; assay: Fungal growth on MEA plates with furanone; type: cell-based; parameters: key to growth on plate, CG572: −: No growth was observed; +: normal growth was seen; conditions: for growth on plate, CG572: 60 μg/mL, 7 days at 30° C.; for growth inhibition test, inhibitory concentration, CG572: tested at 1, 5, 30, 60 μg/mL, 7 days
# Experimental: as §1, §2, §3, §4
# [3] = tested on: Trametes versicolor strain TV57MAD277; assay: Fungal growth on MEA plates with furanone; type: cell-based; parameters: key to growth on plate, TV57MAD277: −: No growth was observed; +: normal growth was seen; conditions: for growth on plate, TV57MAD277: 60 μg/mL, 7 days at 30° C.; for growth inhibition test, inhibitory concentration, TV57MAD277: tested at 1, 5, 30, 60 μg/mL, 7 days
# Experimental: as §1, §2, §3, §4
# [4] = tested on: Chaetomium globosum wildtype strain (CG); assay: Fungal growth on MEA plates with furanone; type: cell-based; parameters: key to growth on plate, CG: −: No growth was observed; +: normal growth was seen; conditions: for growth on plate, CG: 60 μg/mL, 7 days at 30° C.; for growth inhibition test, inhibitory concentration, CG: tested at 1, 5, 30, 60 μg/mL, 7 days
# Experimental: as §1, §2, §3, §4
# [5] = tested on: Gloeophyllum trabeum strain GT598; assay: Fungal growth on MEA plates with furanone; type: cell-based; parameters: key to growth on plate, GT598: −: No growth was observed; +: normal growth was seen; conditions: for growth on plate, GT598: 60 μg/mL, 7 days at 30° C.; for growth inhibition test, inhibitory concentration, GT598: tested at 1, 5, 30, 60 μg/mL, 7 days
# Experimental: as §1, §2, §3, §4
# [6] = tested on: Candida albicans strain SC5341; assay: C. albicans growth curves in SD medium with furanones (96-well plates, OD600); type: cell-based; conditions: tested 2.5, 5, 10, 20 μg/mL
# Experimental: To evaluate the effects of furanones on fungal growth, C. albicans was grown in a synthetic dextrose (“SD”) medium supplemented with 0, 2.5, 5, 10, or 20 μg/mL of one of eight different brominated furanones and […] furanones (BF1, BF8, BF9, BF11, BF12, BF14, NF1, NF2, or NF3).
# The Candida albicans strain SC5341 used in this study was provided by Dr. Sean Palecek from the University of Wisconsin-Madison. C. albicans was routinely grown overnight at 30° C. and shaken at 200 rpm in a SD medium containing 0.67% (wt/vol) yeast nitrogen base without amino acids and 2% (wt/vol) dextrose, which was buffered with 0.165 M morpholinepropanesulfonic acid (MOPS, Sigma), and pH-adjusted to 7.0 with solid NaOH. The overnight culture was then sub-cultured in 25 mL of fresh SD medium to an initial optical density at 600 nm (OD600) of 0.005 and grown till the OD600 reached 1.0. The OD600 values were measured using a Spectronic GENESYS 5 UV-Vis spectrophotometer (Thermo Fisher Scientific®, Waltham, Mass.). This culture was used to inoculate sterile 96-well plates (Costar® No. 9017, Corning®, Corning, N.Y.) containing SD medium supplemented with furanones at different concentrations (0, 2.5, 5, 10, 20 μg/mL) to an OD600 of 0.06 in at least duplicates. The BF1, 8, 9, 11, 12, 14 and NF1-3 compounds were dissolved in ethanol at a concentration of 20 mg/mL. The BF10 compound was dissolved in methanol at a concentration of 20 mg/mL. The amounts of methanol and ethanol were adjusted to be the same for each sample to eliminate the effects of solvents. The samples were then incubated at 30° C. with shaking at 200 rpm, and the OD600 in each well was measured at 0, 4, 7, 17, and 42 hours after inoculation, using an ELx808™ Absorbance Microplate Reader (BioTek Instruments® Inc., Winooski, Vt.).
# [7] = tested on: P. aeruginosa strain PAO1 biofilm formation; assay: Microplate-based biofilm assay (crystal violet, OD540) of P. aeruginosa; type: cell-based, Pseudomonas aeruginosa; conditions: 24 hours
# Experimental: A microplate-based biofilm assay was used to further investigate whether furanones inhibit biofilm formation of P. aeruginosa strain PAO1. For this biofilm assay the strain was grown at 30° C. without shaking in M63 minimal medium containing 13.6 g/L KH2PO4, 2 g/L (NH4)2SO4, 0.5 mg/L FeSO4, 0.12 g/L MgSO4, 5 g/L vitamin free casamino acids and 5 g/L glucose (pH 7.0). The synthesis of the brominated furanones, the structures of which are shown in FIGS. 1A and 1B, was according to Example 1.
# The overnight culture of P. aeruginosa was used to inoculate fresh M63 medium supplemented with furanones (0, 30 or 60 μg/mL) to an OD600 of 0.05 in 96-well plates. Four replicates were tested for each condition. The plates were incubated at 30° C. without shaking for 24 hours. The biofilm mass was quantified by following the protocol described previously. Briefly, the planktonic cells were carefully removed by pipetting and the plates with biofilms were washed three times with deionized H2O and dried by gently patting on a piece of paper towel. To quantify biofilms, the plates were stained with 0.1% crystal violet and incubated for 20 minutes at room temperature. The plates were then washed three times with deionized H2O to remove extra dyes. An OD540 was measured to quantify the biofilm on the bottom of each well.
SMILES,"growth on plate, TV7B2-59 [1]","growth inhibition test, inhibitory concentration, TV7B2-59 [1]","growth on plate, CG572 [2]","growth inhibition test, inhibitory concentration, CG572 [2]","growth on plate, TV57MAD277 [3]","growth inhibition test, inhibitory concentration, TV57MAD277 [3]","growth on plate, CG [4]","growth inhibition test, inhibitory concentration, CG [4]","growth on plate, GT598 [5]","growth inhibition test, inhibitory concentration, GT598 [5]",lowest concentration showing growth inhibition [6],inhibition of biofilm formation ([7]; 30 μg/mL),inhibition of biofilm formation ([7]; 60 μg/mL),"inhibition at 30 µg/mL ([7]; Pseudomonas aeruginosa, PAO1, 30 μg/mL, read-out: inhibition of biofilm formation compared to 24-hour biofilm mass of furanone-free control)","inhibition at 60 µg/mL ([7]; Pseudomonas aeruginosa, PAO1, 60 μg/mL, read-out: inhibition of biofilm formation compared to 24-hour biofilm mass of furanone-free control)"
"CCCCC1=C(Br)/C(=C/Br)OC1=O [BF1, 4-bromo-5Z-(bromomethylene)-3-butylfuran-2-one]",−,5 µg/mL,−,30 µg/mL,−,5 µg/mL,−,30 µg/mL,−,30 µg/mL,20 µg/mL,,,,
"O=C1OC(=C(Br)Br)C=C1C(Br)Br [BF10, 3-(dibromomethyl)-5-(dibromomethylene)furan-2-one]",−,30 µg/mL,−,30 µg/mL,−,5 µg/mL,−,30 µg/mL,−,30 µg/mL,20 µg/mL,didn't show apparent inhibition,significantly inhibited; also recorded: inhibited biofilm formation completely,,
"CC1=C(Br)/C(=C/Br)OC1=O [BF8, 4-bromo-5Z-(bromomethylene)-3-methylfuran-2-one]",−,30 µg/mL,−,30 µg/mL,−,30 µg/mL,−,5 µg/mL,−,5 µg/mL,5 µg/mL,significantly inhibited,significantly inhibited,86.1 ± 7.6%,93.8 ± 3.7%
"CC1=CC(=C(Br)Br)OC1=O [BF9, 5-(dibromomethylene)-3-methylfuran-2-one]",−,5 µg/mL,−,60 µg/mL,−,5 µg/mL,−,5 µg/mL,−,60 µg/mL,20 µg/mL,significantly inhibited,significantly inhibited,,
